From patent US20140154702A1, “Methods For Treating Cancer Using Combination Therapies” (ENDOCYTE, INC., priority 2012, published 2014)
“Also recorded” adds a separate entry of the source. Where two headings read alike, the source gives them in different places.

Columns and labels:
Format in all cases: cell-based
[1] = system: A549 cells; test: Extracellular thiol activity (DTNB method), A549 cells; details: for effect of added thiol on extracellular thiol activity (SH concentration): added to SH-free RPMI: GSSG (1.6 μM), cysteine (189 μM), 2 hours, FIG. 11; for effect on release of extracellular thiols (SH concentration): glutamate (5 mM), quisqualic acid (0.3 mM and 1 mM), 2 hours at 37° C., FIG. 12
[2] = system: KB cells; test: Inhibition of non-FR-specific activity (cytotoxicity) of EC0531 by co-administered inhibitors, KB cells; details: for IC50: read-out: IC50 of inhibition of non-FR-specific activity of EC0531
Method: Extracellular thiol activity was determined using the DTNB method described above. […] Cells were seeded in 24-well tissue culture-treated plates at 1×10^5 cells per well and allowed to attach overnight at 37° C. […] To assess non-FR-targeted activity in FR+cells, 100 μM FA was included as a competitor along with the drug in the treatment solutions. Cells were incubated for 2 hours in the presence of drug, washed 3 times with media, and then chased in 0.5 mL of FDRPMI/HIFBS (FR+cells) or RPMI+FA/HIFBS (FR−cells) to 72 h at 37° C. Spent medium was then aspirated from the wells, and cells were incubated with 1 μCi/mL ^3H-thymidine for 4 hours at 37° C., washed two times with PBS, pH 7.4, then treated with 0.4 mL 5% trichloroacetic acid per well. After 15 minutes, the trichloroacetic acid was aspirated from the wells, and cells were solubilized in 0.5 mL 0.25 N sodium hydroxide. Each sample (450 μL) was transferred to a scintillation vial containing 3 mL of Ecolite+scintillation cocktail and then counted in a liquid scintillation counter (LSC). Final results were expressed as percentage of ^3H-thymidine incorporation relative to an untreated control (non-competed groups) or FA control (competed groups).
The inhibition of non-FR-specific activity (i.e., cytotoxicity) was evaluated for each thiol inhibitor.
Cells were seeded in 24-well tissue culture-treated plates at 1×10^5 cells per well and allowed to attach overnight at 37° C. […] Cells were incubated for 2 hours in the presence of drug, competitor, and inhibitor, washed 3 times with media, and then chased in 0.5 mL of FDRPMI/HIFBS to 72 hours at 37° C. Cells were then treated as described above to determine ^3H-thymidine incorporation. Final results were expressed as percentage of ^3H-thymidine incorporation relative to an untreated control (non-competed groups) or FA control (competed groups).
The inhibition of non-FR-specific activity (i.e., cytotoxicity) was evaluated. KB cells were seeded in 24-well tissue culture-treated plates at 1×10^5 cells per well in FDRPMI/HIFBS and allowed to attach to the plates overnight at 37° C. […] Cells were incubated for 2 hours in the presence of drug, FA competitor, and inhibitor, washed 3 times with media, then chased in 0.5 mL of FDRPMI/HIFBS to 72 hours at 37° C. Cells were then treated as described above to determine ^3H-thymidine incorporation. Final results were expressed as percentage of ^3H-thymidine incorporation relative to an untreated control (non-competed groups) or FA control (competed groups). […]

[3] = system: A549 cells; test: Inhibition of non-FR-specific activity (cytotoxicity) of EC0531 by co-administered inhibitors, A549 cells; details: sulfasalazine (1 mM), glutamate (5 mM) with increasing EC0531, 2 hours, chase to 72 hours, FIG. 14
Method: Cells were then treated as described above to determine ^3H-thymidine incorporation. The inhibition of non-FR-specific activity (i.e., cytotoxicity) was evaluated for each system xc^− inhibitor.

[4] = system: KB cells; test: 3H-EC0531 uptake study, KB cells; details: for effect of inhibitor on nonspecific uptake of 3H-EC0531: 1 μM EC0531 plus inhibitor, 100 μM FA, 2 hours at 37° C.
Method: (§1) To determine non-FR-targeted uptake, 100 μM FA was included in the uptake solutions. Cells were incubated with 0.5 mL of uptake solution for 2 h at 37° C., washed 3 times with ice-cold PBS, and were solubilized in 0.5 mL 1% SDS in PBS, pH 7.4. Cell lysates (450 μL) were added to 3 mL Ecolite+scintillation cocktail and counted in a liquid scintillation counter. Protein concentrations of the remaining lysates were determined using the BCA Protein Assay (Pierce, Rockford, Ill.). Molecules per cell were calculated based on DPM values and previously determined cellular protein conversion factors (2.82×10^−7 and 2.23×10^−7 mg protein per cell for KB and A549, respectively).
(§2) FA at a concentration of 100 μM was used as a competitor to determine non-FR-specific uptake in KB cells. Wells were then washed 3 times with 1 mL of ice-cold PBS, pH 7.4 and were processed for LSC analysis as described above.
(§3) Wells were then washed 3 times with 1 mL of ice-cold PBS, pH 7.4 and were processed for LSC analysis as described above.

[5] = system: A549 cells; test: 3H-EC0531 uptake study, A549 cells; details: for effect of inhibitor on nonspecific uptake of 3H-EC0531: 1 μM EC0531 plus inhibitor, 2 hours at 37° C.
Method: as §1, §2, §3

[6] = system: KB cells; test: Inhibition of non-FR-specific activity (cytotoxicity) of EC0531 by co-administered inhibitors, KB cells; details: KB cells pre-treated with inhibitor prior to EC0531 and folic acid; DTNB (100 μM), NCEM (10 mM); FIG. 6
[7] = inhibitor concentration 3 mM, co-administration with EC0531
[8] = KB cells, co-administered with EC0531 (1 μM) and folic acid (100 μM)
[9] = KB cells, co-administered with EC0531 (1 μM) and folic acid (100 μM), 2 hours, 72 hour chase
[10] = inhibitor concentration 100 μM, co-administration with EC0531
[11] = DTNB 10 μM and 100 μM, excess folic acid, FIG. 8

N[C@@H](CS)C(=O)O [Cysteine, cysteine]
effect of added thiol on extracellular thiol activity (SH concentration) [1]: responsible for stimulation

N[C@@H](CCC(=O)N[C@@H](CSCC(=O)Nc1ccc([As](O)O)cc1)C(=O)NCC(=O)O)C(=O)O [EC1277 (GSAO), 4-(N—(S-glutathionylacetyl)amino) phenylarsonous acid]
Inhibition of EC0531 Nonspecific Activity [2, 7]: Full inhibition

O=C(O[C@@H]1Cc2c(O)cc(O)cc2O[C@@H]1c1cc(O)c(O)c(O)c1)c1cc(O)c(O)c(O)c1 [EGCg, epigallocatechin gallate]
Inhibition of EC0531 Nonspecific Activity ([2]; 100 µM): >50% inhibition

O=S(=O)([O-])CCSSCCS(=O)(=O)[O-].[Na+].[Na+] [Dimesna, 2,2′-dithio-bis-ethanesulfonate]
Inhibition of EC0531 Nonspecific Activity [2]: Full inhibition

O=C1OC(c2ccc(O)c(S(=O)(=O)O)c2)(c2ccc(O)c(S(=O)(=O)O)c2)c2c(Br)c(Br)c(Br)c(Br)c21 [BSP]
Inhibition of EC0531 Nonspecific Activity [2]: <50% inhibition

O=C(O)c1cc(/N=N/c2ccc(S(=O)(=O)Nc3ccccn3)cc2)ccc1O [sulfasalazine]
inhibition of non-FR-specific activity of EC0531 (in words) [2, 8]: dose-responsive inhibition | IC50 [2, 9]: 170 µM | inhibition of non-FR-specific activity of EC0531 (in words) [3]: inhibit; also recorded: greater inhibition | effect of inhibitor on nonspecific uptake of 3H-EC0531 [4]: reduced | effect of inhibitor on nonspecific uptake of 3H-EC0531 [5]: reduced

folate-maleimide
inhibition of non-FR-specific activity of EC0531 (in words) [2, 8]: dose-responsive inhibition | Inhibition of EC0531 Nonspecific Activity [2, 10]: Full inhibition | IC50 [2, 9]: 3.5 µM

CN(Cc1cnc2nc(N)nc(N)c2n1)c1ccc(C(=O)N[C@@H](CCC(=O)O)C(=O)O)cc1 [methotrexate]
effect of inhibitor on nonspecific uptake of 3H-EC0531 [4]: ineffective | effect of inhibitor on nonspecific uptake of 3H-EC0531 [5]: ineffective

oxidized glutathione [GSSG]
Inhibition of EC0531 Nonspecific Activity [2]: Full inhibition | effect of added thiol on extracellular thiol activity (SH concentration) [1]: no effect

O=C(O)c1cc(SSc2ccc([N+](=O)[O-])c(C(=O)O)c2)ccc1[N+](=O)[O-] [DTNB, 5,5′-dithiobis(2-nitrobenzoic acid)]
inhibition of non-FR-specific activity of EC0531 (in words) [2, 8]: dose-responsive inhibition | Inhibition of EC0531 Nonspecific Activity ([2]; inhibitor concentration 10 μM, co-administration with EC0531): Full inhibition | IC50 [2]: 4.6 µM | effect of inhibitor on nonspecific uptake of 3H-EC0531 [4]: reduced | effect of inhibitor on nonspecific uptake of 3H-folic acid [4, 11]: mostly unaffected | effect of inhibitor on nonspecific uptake of 3H-EC0531 [5]: reduced | effect of inhibitor on nonspecific uptake of 3H-folic acid [5, 11]: mostly unaffected | inhibition of non-FR-specific activity of EC0531 by pre-treatment of cells [6]: not effective

N[C@@H](CCC(=O)O)C(=O)O [glutamate]
inhibition of non-FR-specific activity of EC0531 (in words) [3]: inhibit | effect on release of extracellular thiols (SH concentration) [1]: significantly reduce

N[C@@H](Cn1oc(=O)[nH]c1=O)C(=O)O [quisqualic acid]
effect on release of extracellular thiols (SH concentration) [1]: significantly reduce; also recorded: dose-dependent reduction

O=C(O)CCN1C(=O)C=CC1=O [NCEM, N-(2-carboxyethyl)maleimide]
inhibition of non-FR-specific activity of EC0531 (in words) [2, 8]: dose-responsive inhibition | Inhibition of EC0531 Nonspecific Activity [2, 10]: Full inhibition | IC50 [2, 9]: 17 µM | effect of inhibitor on nonspecific uptake of 3H-EC0531 [4]: reduced | effect of inhibitor on nonspecific uptake of 3H-EC0531 [5]: reduced | inhibition of non-FR-specific activity of EC0531 by pre-treatment of cells [6]: not effective

O=S(=O)([O-])c1cc[c]([Hg][Cl])cc1 [pCMBS, p-chloromercuribenzene sulfonate]
Inhibition of EC0531 Nonspecific Activity [2, 10]: >50% inhibition

O=S(=O)(O)c1cc(N=C=S)ccc1C=Cc1ccc(N=C=S)cc1S(=O)(=O)O [DIDS]
Inhibition of EC0531 Nonspecific Activity [2]: Full inhibition | effect of inhibitor on nonspecific uptake of 3H-EC0531 [4]: reduced | effect of inhibitor on nonspecific uptake of 3H-EC0531 [5]: reduced

methoxy-PEG5000-vinylsulfone
Inhibition of EC0531 Nonspecific Activity [2, 7]: >50% inhibition
